Results on 35 compounds are retold here after patent US6638921B1, “Pyridoxal-5-phosphate derivatives as HIV integrase inhibitors” (Pharmacor Inc., priority 2002, dated 2003).

One data set relates to MT-4 cell line. The data set can be described thus: Cytotoxicity assay in vitro (MTT, virus omitted). It is filed as cell-based. The method, then:
(§1) To evaluate the EC50 of our compounds, various drug concentrations are incubated with the infected cell for six days and then the metabolic activity of the cells is monitored by the MTT assay. (See A. J. Japour et al, Antimicrobial Agents and Chemotherapy, 37, 1095-1101, 1993 and R. Pauwels et al. Journal of Virological Methods, 20, 309-321, 1988).
(§2) We use the laboratory viral strain NL4.3 as wild type virus and the cell line used is MT-4 which is a T-cell line highly sensitive to HIV-1. We also use some WT clinical strains. To address the resistance issue we assay the inhibitors with NL4.3 mutants which are designed to be resistant to specific commercially available inhibitors. The following reagents were obtained through the AIDS Research and Reference Reagent Program, division of AIDS, NIAID, NIH: pNL4.3 from Dr. Malcolm Martin; MT-4 cell line from Dr. Douglas Richman. Wild type (WT) clinical strains were obtained from “Laboratoire de santé publique du Québec”.
The same MTT assay is used to evaluate the CCIC50 of our compounds except that the virus is omitted.

Data set [1] deals with HIV-1 laboratory viral strain NL4.3. The experiment in a line: Anti-viral assay in vitro (MTT, infected MT-4 cells). It is filed as cell-based. To be noted: reduce virus replication in cell culture by 50%, six days. How it is done:
as §1, §2

A further data set concerns the target HIV-1 integrase (Human immunodeficiency virus type 1 group M subtype B, UniProt P12497). The data set can be described thus: HIV-1 integrase inhibition assay in vitro (radiolabeled duplex substrate, U5 end of HIV LTR). The data set is classed as biochemical. The method, then: For the purpose of Table 1, the HIV-1 integrase inhibition assay was carried out following a known procedure (Burke, Jr. T. R. et al., J. Med. Chem. 38, 4171-4178 (1995)). A suitable radiolabeled duplex substrate corresponding to the U5 end of the HIV LTR was used.

Where [2] appears, read: concentration of drug required to reduce the enzyme activity by 50%, read-out: IC50.
[3] abbreviates: Human immunodeficiency virus 1, MT4, 144 h.
Setting [4] is: IC50, concentration of drug required to reduce the enzyme activity by 50%.

Counter-ions that a name gives are not always drawn. Like-named read-outs stand apart in the source and are kept apart here.

The term EC50 denotes the concentration that produces a half-maximal response. For orientation: IC50 means the concentration that gives 50% inhibition. In the data set with MT-4 cell line, “6-[4-(N-(2-E-Caprolactamyl)-N-isobutylsulfamoyl)phenylazo]-pyridoxal-5-phosphate Hydrochloride [Example 5]” gave a CCIC50 above 100 µM. In addition, the EC50 in data set [1] (read-out: EC50) is 17 µM. Moreover, the IC50 at HIV-1 integrase (setting [2]) came out at 0.6 µM. In the data set with MT-4 cell line (human, 6 days), `Cc1nc(N=Nc2cccc(C(=O)O)c2C)c(COP(=O)(O)O)c(C=O)c1O` [Example 1, 6-(3-Carboxy-2-methylphenylazo)-pyridoxal-5-phosphate] gave a CCIC50 above 100 µM. In addition, the EC50 in data set [1] (setting [3]) was 2 µM. The compound further registered an IC50 against HIV-1 integrase (setting [4]) of 1.2 µM.

Compound `Cc1nc(N=Nc2ccc(S(N)(=O)=O)cc2)c(COP(=O)(O)O)c(C=O)c1O` [Example 2, 6-(4-Sulfamoylphenylazo)-pyridoxal-5-phosphate] gave a CCIC50 in the data set on MT-4 cell line (human, 6 days) above 100 µM. The compound also showed an EC50 in data set [1] (setting [3]) of 5 µM. On HIV-1 integrase (setting [4]), this compound had a concentration for half-maximal inhibition (IC50) of 0.25 µM.

`Cc1nc(N=Nc2ccc(S(=O)(=O)NC34CC5CC(CC(C5)C3)C4)cc2)c(COP(=O)(O)O)c(C=O)c1O` [Example 3, 6-[4-(N-(1-Adamantyl)sulfamoyl)phenylazo]-pyridoxal-5-phosphate Hydrochloride] had a CCIC50 in the data set on MT-4 cell line (human, 6 days) of 12 µM. In data set [1] (setting [3]), this compound displayed a concentration giving a half-maximal response (EC50) of 19.8 µM. The compound further displayed an IC50 against HIV-1 integrase (setting [4]) of 0.2 µM. Consider `Cc1nc(N=Nc2cccc(C(=O)NC34CC5CC(CC(C5)C3)C4)c2)c(COP(=O)(O)O)c(C=O)c1O` [Example 4, 6-[3-(N-(1-Adamantyl)carbamoyl)phenylazo]-pyridoxal-5-phosphate Hydrochloride], for which the CCIC50 with MT-4 cell line (human, 6 days) turned out to be 13 µM. Moreover, a half-maximal response in data set [1] (setting [3]) (EC50) required 50 µM. For the same compound, on HIV-1 integrase (setting [4]), the IC50 was found to be 0.4 µM. In the case of `Cc1nc(N=Nc2cccc(S(=O)(=O)N3CCCCC3)c2)c(COP(=O)(O)O)c(C=O)c1O` [Example 6, 6-[3-(1-Piperidinesulfonyl)phenylazo]-pyridoxal-5-phosphate], at HIV-1 integrase (setting [2]), the IC50 was 4.37 µM.

The compound `Cc1nc(N=Nc2ccc(S(=O)(=O)N3CCCCC3)cc2)c(COP(=O)(O)O)c(C=O)c1O` [Example 7, 6-[4-(1-Piperidinesulfonyl)phenylazo]-pyridoxal-5-phosphate] yielded a CCIC50 with MT-4 cell line (human, 6 days) above 100 µM. Moreover, the response in data set [1] (setting [3]) was half-maximal at 12.5 µM (EC50). Besides, it took 2.5 µM to reach half-maximal inhibition against HIV-1 integrase (setting [4]) (IC50). For the compound `Cc1nc(/N=N/c2cccc(C(=O)N3CCCCC3)c2)c(COP(=O)(O)O)c(C=O)c1O` [Example 8, 6-[3-(1-Piperidinecarbonyl)phenylazo]-pyridoxal-5-phosphate], the half-maximal inhibitory concentration (IC50) at HIV-1 integrase (setting [2]) was 2.8 µM. Consider `Cc1nc(N=Nc2cccc(S(=O)(=O)NC(C)(C)C)c2)c(COP(=O)(O)O)c(C=O)c1O` [Example 9, 6-[3-(tert-Butylsulfamoyl)phenylazo]-pyridoxal-5-phosphate], for which the CCIC50 in the data set on MT-4 cell line (human, 6 days) is 57 µM. The compound further displayed an EC50 in data set [1] (setting [3]) of 15 µM. The compound further gave an IC50 on HIV-1 integrase (setting [4]) of 3 µM. On to `Cc1nc(N=Nc2ccc(S(=O)(=O)NC(C)(C)C)cc2)c(COP(=O)(O)O)c(C=O)c1O` [Example 10, 6-[4-(tert-Butylsulfamoyl)phenylazo]-pyridoxal-5-phosphate], for which the half-maximal inhibitory concentration (IC50) on HIV-1 integrase (setting [2]) came to 4.25 µM. As for `Cc1nc(N=Nc2ccc(C(=O)NC(C)(C)C)cc2)c(COP(=O)(O)O)c(C=O)c1O` [Example 11, 6-[4-(tert-Butylcarbamoyl)phenylazo]-pyridoxal-5-phosphate], the IC50 at HIV-1 integrase (setting [2]) was found to be 2.73 µM.

Consider `Cc1nc(N=Nc2cccc(S(=O)(=O)N3CCCC3)c2)c(COP(=O)(O)O)c(C=O)c1O` [Example 12, 6-[3-(1-Pyrrolinesulfonyl)phenylazo]-pyridoxal-5-phosphate], for which the IC50 at HIV-1 integrase (setting [2]) was determined as 2.9 µM. In the case of `Cc1nc(N=Nc2cccc(C(=O)NCC(C)C)c2)c(COP(=O)(O)O)c(C=O)c1O` [Example 13, 6-[3-(Isobutylcarbamoyl)phenylazo]-pyridoxal-5-phosphate], the CCIC50 with MT-4 cell line (human, 6 days) turned out to be 90 µM. Besides, in data set [1] (setting [3]), the response was half-maximal at 50 µM (EC50). The compound also registered a half-maximal inhibitory concentration (IC50) against HIV-1 integrase (setting [4]) of 1.3 µM. With `Cc1nc(N=Nc2ccc(C(=O)NC3CCCCC3)cc2)c(COP(=O)(O)O)c(C=O)c1O` [Example 14, 6-[4-(Cyclohexylcarbamoyl)phenylazo]-pyridoxal-5-phosphate], the IC50 on HIV-1 integrase (setting [2]) worked out at 4.36 µM.

In the case of `Cc1nc(N=Nc2ccc(S(=O)(=O)N3CCCC3)cc2)c(COP(=O)(O)O)c(C=O)c1O` [Example 15, 6-[4-(1-Pyrrolinesulfonyl)phenylazo]-pyridoxal-5-phosphate], the half-inhibitory concentration (IC50) at HIV-1 integrase (setting [2]) came to 1.7 µM. For the compound `Cc1nc(N=Nc2cccc(S(=O)(=O)NCC(C)C)c2)c(COP(=O)(O)O)c(C=O)c1O` [Example 16, 6-[3-(Isobutylsulfamoyl)phenylazo]-pyridoxal-5-phosphate], the IC50 at HIV-1 integrase (setting [2]) was found to be 1.9 µM. As to `Cc1nc(N=Nc2ccc(S(=O)(=O)NCC(C)C)cc2)c(COP(=O)(O)O)c(C=O)c1O` [Example 17, 6-[4-(Isobutylsulfamoyl)phenylazo]pyridoxal-5-phosphate], the IC50 on HIV-1 integrase (setting [2]) turned out to be 2.45 µM. For `Cc1nc(N=Nc2ccc(S(=O)(=O)NC3CCCCC3)cc2)c(COP(=O)(O)O)c(C=O)c1O` [Example 18, 6-[4-(Cyclohexylsulfamoyl)phenylazo]-pyridoxal-5-phosphate], the IC50 at HIV-1 integrase (setting [2]) was found to be 2.2 µM.

Consider `CCCCNS(=O)(=O)c1cccc(N=Nc2nc(C)c(O)c(C=O)c2COP(=O)(O)O)c1` [Example 19, 6-[3-(Butylsulfamoyl)phenylazo]-pyridoxal-5-phosphate], for which the IC50 on HIV-1 integrase (setting [2]) was 2 µM. Consider `CNS(=O)(=O)c1ccc(N=Nc2nc(C)c(O)c(C=O)c2COP(=O)(O)O)cc1` [Example 20, 6-[4-(Methylsulfamoyl)phenylazo]-pyridoxal-5-phosphate], for which the half-maximal inhibitory concentration (IC50) at HIV-1 integrase (setting [2]) was 1.2 µM.

As to `Cc1nc(N=Nc2cccc(S(=O)(=O)NCCO)c2)c(COP(=O)(O)O)c(C=O)c1O` [Example 21, 6-[3-(2-Hydroxyethylsulfamoyl)phenylazo]-pyridoxal-5-phosphate], at HIV-1 integrase (setting [2]), the concentration for half-maximal inhibition (IC50) was 2.45 µM. `Cc1nc(N=Nc2cc(C(=O)O)cc(C(=O)O)c2)c(COP(=O)(O)O)c(C=O)c1O` [Example 22, 6-(3,5-Dicarboxyphenylazo)-pyridoxal-5-phosphate] registered a CCIC50 in the data set with MT-4 cell line (human, 6 days) above 100 µM. The IC50 against HIV-1 integrase (setting [4]) amounted to 0.43 µM.

For `Cc1cc(NS(=O)(=O)c2ccc(N=Nc3nc(C)c(O)c(C=O)c3COP(=O)(O)O)cc2)nc(C)n1` [Example 23], on HIV-1 integrase (setting [2]), the half-maximal inhibitory concentration (IC50) was determined as 2.75 µM. `CNS(=O)(=O)c1cccc(N=Nc2nc(C)c(O)c(C=O)c2COP(=O)(O)O)c1` [Example 26, 6-[3-(Methylsulfamoyl)phenylazo]-pyridoxal-5-phosphate]: the half-maximal inhibitory concentration (IC50) on HIV-1 integrase (setting [2]) is 3.7 µM. In turn, `Cc1nc(N=Nc2ccc(S(=O)(=O)Nc3ccon3)cc2)c(COP(=O)(O)O)c(C=O)c1O` [Example 32, 6-[4-(3-Isoazolylsulfamoyl)phenylazo]-pyridoxal-5-phosphate] returned an EC50 in data set [1] (setting [3]) of 50 µM. For the same compound, at HIV-1 integrase (setting [2]), the IC50 was determined as 3 µM. The like results for `Cc1nc(N=Nc2ccccc2[N+](=O)[O-])c(COP(=O)(O)O)c(C=O)c1O` [Example 33, 6-(2-Nitrophenylazo)-pyridoxal-5-phosphate] were, in that order, 33 µM and 5.25 µM. In data set [1] (setting [3]), `Cc1nc(N=Nc2cccc(Cl)c2)c(COP(=O)(O)O)c(C=O)c1O` [Example 34, 6-(3-Chlorophenylazo)-pyridoxal-5-phosphate] showed a concentration for a half-maximal effect (EC50) of 45 µM. In addition, the IC50 at HIV-1 integrase (setting [2]) amounted to 2.6 µM. `Cc1nc(N=Nc2cccc(S(N)(=O)=O)c2)c(COP(=O)(O)O)c(C=O)c1O` [Example 35, 6-(3-Sulfamoylphenylazo)-pyridoxal-5-phosphate]: the IC50 at HIV-1 integrase (setting [2]) was 12.8 µM. Take `Cc1nc(N=Nc2cccc(C(=O)NC3=NCCCN3)c2)c(COP(=O)(O)O)c(C=O)c1O` [Example 36, 6-[3-(2-(1,4,5,6-Tetrahydropyrimidyl)carbamoyl)phenylazo]-pyridoxal-5-phosphate]: the 50% inhibitory concentration (IC50) at HIV-1 integrase (setting [2]) worked out at 6.2 µM. Regarding `Cc1nc(N=Nc2ccc(C#N)cc2)c(COP(=O)(O)O)c(C=O)c1O` [Example 42, 6-(4-Cyanophenylazo)-pyridoxal-5-phosphate], the CCIC50 in the data set with MT-4 cell line (human, 6 days) was above 100 µM. On HIV-1 integrase (setting [4]), this compound returned an IC50 of 11.3 µM. Regarding `Cc1nc(N=Nc2ccc(C(N)=O)cc2)c(COP(=O)(O)O)c(C=O)c1O` [Example 43, 6-(4-Carbamoylphenylazo)-pyridoxal-5-phosphate], on HIV-1 integrase (setting [2]), the IC50 is 8.7 µM. With `Cc1nc(N=Nc2ccc(S(=O)(=O)Nc3ccccc3F)cc2)c(COP(=O)(O)O)c(C=O)c1O` [Example 44, 6-[4-(2-Fluorophenylsulfamoyl)phenylazo]pyridoxal-5-phosphate], the IC50 at HIV-1 integrase (setting [2]) was 7.7 µM. Regarding `Cc1nc(N=Nc2ccc(S(=O)(=O)Nc3cccc(F)c3)cc2)c(COP(=O)(O)O)c(C=O)c1O` [Example 45, 6-[4-(3-Fluorophenylsulfamoyl)phenylazo]-pyridoxal-5-phosphate], the IC50 at HIV-1 integrase (setting [2]) is 10.5 µM. The compound `Cc1nc(N=Nc2ccc(S(=O)(=O)Nc3ccc(F)cc3)cc2)c(COP(=O)(O)O)c(C=O)c1O` [Example 46, 6-[4-(4-Fluorophenylsulfamoyl)phenylazo]-pyridoxal-5-phosphate] had a CCIC50 with MT-4 cell line (human, 6 days) of 32 µM. It took 1.5 µM to reach half-maximal inhibition against HIV-1 integrase (setting [4]) (IC50). In the case of `Cc1nc(N=Nc2ccc(S(=O)(=O)Nc3ncccn3)cc2)c(COP(=O)(O)O)c(C=NO)c1O` [Example 53, 6-[4-(2-Pyrimidylsulfamoyl)phenylazo]-pyridoxal-5-phosphate Oxime], in data set [1] (setting [3]), the EC50 was 15 µM. In addition, the IC50 on HIV-1 integrase (setting [2]) came to 2 µM.
